Measured values taken from patent publication US7410979B2, “Synergistically effective combinations of dihaloacetamide compounds and interferon or ribavirin against HCV infections” (Rigel Pharmaceuticals, Inc., priority 2003, dated 2008).

Test system: HCV NS3
Experiment: Quantitative Western blot of HCV NS3 in replicon cells
Format: cell-based
Experimental: Certain exemplary synergistic combinations of the invention can also be tested for their ability to inhibit HCV replication using a quantitative Western blot analysis with antibodies specific for the HCV nonstructural protein NS3. Actively dividing 9-13 replicon cells can be seeded into 6-well plates at a density of 1×10^5 cells/well in a volume of 2 ml/well and can be incubated at 37° C. and 5% CO2 for 24 hours. Various concentrations of test compounds (in a volume of 10 ul) were can be added to the wells and the cells can be incubated for another 48 hours. Protein samples can be prepared from the cultured cells, then could be resolved on a SDS-PAGE gel and then could be transferred to a nitrocellulose membrane. The membrane can be blocked with 5% non-fat milk in PBS for 1 hour at room temperature. Primary antibody (anti NS3 antibody; Rigel Pharmaceuticals, South San Francisco, Calif.) incubation can be performed for 1 hour at room temperature, after which the membrane can be washed 3 times (for 15 min per time) with PBST (PBS plus 0.1% Tween 20). Horseradish peroxidase conjugated secondary antibody incubation can be performed for 1 hour at room temperature and the membrane can be washed 3 times (for 15 min per time) with PBST. The membrane can then be soaked in substrate solution (Pierce) and can then be exposed to a film or quantified using an imager. In this assay, the amount of test synergetic combination that yields a 50% reduction in the amount of NS3 protein translated as compared to a control sample (IC50) can be determined.

Row | Molecule | HCV NS3 protein level (FIG. 2, 100 nM of compound I and 20 μm ribavirin) | synergy between compound I and ribavirin (FIG. 2, ribavirin at constant concentration, concentration of compound I varied) | synergistic effects on HCV replication (FIG. 3, compound I, interferon-α and ribavirin) | HCV NS3 (FIGS. 3(c) and 3(d), increasing concentrations of compound I in combination with interferon-α and ribavirin) | effectiveness against HCV replication, as indicated by the reduction of HCV NS3 in replicon cells (FIG. 3(a), interferon-α alone at elevated concentrations)
1 | O=C(Nc1ccnc(-c2cc(-c3c(Cl)cccc3Cl)no2)c1)C(Cl)Cl [compound I] | eliminated | synergy | synergistic effects | effectively eliminates | 
2 | interferon-α |  |  |  |  | effective
